The values that follow come from patent US9493441B2, “Acyclic cyanoethylpyrazoles as janus kinase inhibitors” (Merck Sharp & Dohme Corp., priority 2011, dated 2016).

The term IC50 denotes the concentration needed to halve the response being measured.

In one assay the target is JAK1 (Homo sapiens (Human), UniProt P23458). As to the kind of experiment: Jak biochemical HTRF assay, JAK1.
Another assay has as its target JAK2 (Homo sapiens (Human), UniProt O60674). The assay can be described thus: Jak biochemical HTRF assay, JAK2.
Where [1] appears, read: JAK1 IC50 (nM), recombinant GST-tagged catalytic domain, [ATP] 31.8 μM.
Setting [2] is: JAK2 IC50 (nM), recombinant GST-tagged catalytic domain, [ATP] […].
[3] abbreviates: read-out: JAK2 IC50, recombinant GST-tagged catalytic domain, [ATP] […].

Each structure is given as a SMILES string. Like-named read-outs stand apart in the source and are kept apart here.

Chain of JAK2 (O60674 849-1124): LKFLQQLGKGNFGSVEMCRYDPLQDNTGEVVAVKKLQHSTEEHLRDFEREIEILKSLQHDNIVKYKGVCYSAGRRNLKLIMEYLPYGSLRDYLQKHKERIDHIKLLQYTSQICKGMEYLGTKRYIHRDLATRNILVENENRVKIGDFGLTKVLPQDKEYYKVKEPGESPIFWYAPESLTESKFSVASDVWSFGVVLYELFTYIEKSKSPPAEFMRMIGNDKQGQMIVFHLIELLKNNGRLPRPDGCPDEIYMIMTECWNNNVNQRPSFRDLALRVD
Chain of JAK1 (P23458 875-1153): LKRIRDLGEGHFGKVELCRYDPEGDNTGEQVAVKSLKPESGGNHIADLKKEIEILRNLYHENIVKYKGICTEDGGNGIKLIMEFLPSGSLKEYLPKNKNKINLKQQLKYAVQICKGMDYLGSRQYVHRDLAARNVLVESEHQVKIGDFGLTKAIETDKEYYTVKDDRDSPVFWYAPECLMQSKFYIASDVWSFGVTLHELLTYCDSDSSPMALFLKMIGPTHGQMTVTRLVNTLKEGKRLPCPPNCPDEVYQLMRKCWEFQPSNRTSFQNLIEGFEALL

Take `C[S+]([O-])c1ccc(Nc2nn(C(CC#N)C3CC3)cc2C(N)=O)cc1` (centres unmarked) [Example 4-32, 1-(2-cyano-1-cyclopropylethyl)-3-{[4-(methylsulfinyl)phenyl]amino}-1H-pyrazole-4-carboxamide]: the IC50 was 1 nM on JAK1 (setting [1]) and 13 nM at JAK2 (setting [2]).

As to `N#CCC(C1CC1)n1cc(C(N)=O)c(Nc2cccnc2)n1` (centres unmarked) [Example 4-6, 1-(2-cyano-1-cyclopropylethyl)-3 - (pyridin-3-ylamino)-1H-pyrazole-4-carboxamide], the IC50 was determined as 33 nM at JAK1 (setting [1]) and 76 nM on JAK2 (setting [2]).

As for `C[C@H](CC#N)n1cc(C(N)=O)c(Nc2ccccc2)n1` (single isomer, unassigned) [Example 17-2, 1-[(2S or 2R)-1-cyanopropan-2-yl]-3-(phenylamino)-1H-pyrazole-4-carboxamide], the IC50 at JAK1 (read-out: JAK1 IC50, recombinant GST-tagged catalytic domain, [ATP] 31.8 μM) came to 47 nM; on JAK2 (setting [3]), 469 nM.

As to `CC(C)(C)OC(=O)CN1Cc2cc(Nc3nn(C(CC#N)C4CC4)cc3C(N)=O)ccc2C1=O` (centres unmarked) [Example 4-34, tert-butyl (5-{[4-carbamoyl-1-(2-cyano-1-cyclopropylethyl)-1H-pyrazol-3-yl]amino}-1-oxo-1,3-dihydro-2H-isoindol-2-yl)acetate], the IC50 on JAK1 (setting [1]) turned out to be 2 nM; at JAK2 (setting [2]), 20 nM.

`N#CCC(C1CCC1)n1cc(C(N)=O)c(Nc2ccccc2)n1` (centres unmarked) [Example 1-19, 1-(2-cyano-1-cydobutylethyl)-3-(phenylamino)-1H-pyrazole-4-carboxamide]: the IC50 amounted to 31 nM at JAK1 (setting [1]) and 272 nM at JAK2 (setting [2]).

Consider `N#CC[C@@H](C1CCN(C(=O)OCc2ccccc2)CC1)n1cc(C(N)=O)c(Nc2ccc(F)cc2)n1` (single isomer, unassigned) [Example 12-6, benzyl 4-[(1S or 1R)-1-{4-carbamoyl-3-[(4-fluorophenyl)amino]-1H-pyrazol-1-yl}-2-cyanoethyl]piperidine-1-carboxylate], for which the IC50 stood at 190 nM at JAK1 (setting [1]) and 1500 nM on JAK2 (setting [2]).

In the case of `CC(C)(O)c1cn(Cc2cccc(Nc3nn(C(CC#N)C4CCCC4)cc3C(N)=O)c2)nn1` (centres unmarked) [Example 1-8, 1-(2-cyano-1-cyclopentylethyl)-3-[(3-{[4-(1-hydroxy-1-methylethyl)-1H-1,2,3-triazol-1-yl]methyl}phenyl)amino]-1H-pyrazole-4-carboxamide], the IC50 on JAK1 (setting [1]) stood at 194 nM; at JAK2 (setting [2]), 999 nM.

For the compound `N#CCC(C1CC1)n1cc(C(N)=O)c(Nc2ccc(S(N)(=O)=O)cc2)n1` (centres unmarked) [Example 6-3, 1-(2-cyano-1-cyclopropylethyl]-3-[(4-sulfamoylphenyl)amino]-1H-pyrazole-4-carboxamide], the IC50 was 1 nM on JAK1 (setting [1]) and 10 nM on JAK2 (setting [2]).

For the compound `N#CCC(C1CCCOC1)n1cc(C(N)=O)c(Nc2ccccc2)n1` (centres unmarked) [Example 1-15, 1-[2-cyano-1-(tetrahydro-2H-pyran-3-yl)ethyl]-3-(phenylamino)-1H-pyrazole-4-carboxamide], the IC50 at JAK1 (setting [1]) worked out at 501 nM; at JAK2 (setting [2]) it was 1480 nM.

`CC(C)(C)CC(CC#N)n1cc(C(N)=O)c(Nc2ccccc2)n1` (centres unmarked) [Example 1-13]: the figures for the IC50 at JAK1 (setting [1]) and on JAK2 (setting [2]) were 598 nM and 1480 nM, respectively.

In the case of `N#CCC(C1CCCC1)n1cc(C(N)=O)c(Nc2ccc(C(=O)N3CCS(=O)(=O)CC3)cc2)n1` (centres unmarked) [Example 1-5, 1-(2-cyano-1-cyclopentylethyl)-3-({4-[(1,1-dioxidothiomorpholin-4-yl)carbonyl]phenyl}amino)-1H-pyrazole-4-carboxamide], the half-inhibitory concentration (IC50) was 9 nM at JAK1 (setting [1]) and 31 nM on JAK2 (setting [2]).

Turning to `CC(OC(=O)N1CCC([C@H](CC#N)n2cc(C(N)=O)c(Nc3ccc(F)cc3)n2)CC1)C(F)(F)F` (stereo partly drawn) [Example 11-11, 2,2,2-trifluoro-1-methylethyl 4-[(1S)-1-{4-carbamoyl-3-[(4-fluorophenyl)amino]-1H-pyrazol-1-yl}-2-cyanoethyl]piperidine-1-carboxylate], the half-maximal inhibitory concentration (IC50) at JAK1 (setting [1]) is 46 nM; on JAK2 (setting [2]), 1040 nM.

Turning to `N#CCC(C1CC1)n1cc(C(N)=O)c(Nc2ccc(-c3cnco3)cc2)n1` (centres unmarked) [Example 4-24, 1-(2-cyano-1-cyclopropylethyl)-3-{[4-(1,3-oxazol-5-yl)phenyl]amino}-1H-pyrazole-4-carboxamide], the IC50 was found to be 41 nM at JAK1 (setting [1]) and 262 nM at JAK2 (setting [2]).

For `N#CCC(C1CC1)n1cc(C(N)=O)c(Nc2ccccc2)n1` (centres unmarked) [Example 1-1, 1-(2-Cyano-1-cyclopropylethyl)-3-(phenylamino)-1H-pyrazole-4-carboxamide], the figures for the IC50 at JAK1 (setting [1]) and on JAK2 (setting [2]) were 10 nM and 79 nM, respectively.

For `N#CC[C@@H](C1CC1)n1cc(C(N)=O)c(Nc2ccc3c(c2)CNC3=O)n1` (single isomer, unassigned) [Example 19-2, 1-[(1R or 1S)-2-cyano-1-cyclopropylethyl]-3-[(1-oxo-2,3-dihydro-1H-isoindol-5-yl)amino]-1H-pyrazole-4-carboxamide], the IC50 on JAK2 (setting [3]) is 105 nM.

For the compound `N#CCC(C1CC1)n1cc(C(N)=O)c(Nc2ccc(S(=O)(=O)C(F)F)cc2)n1` (centres unmarked) [Example 4-29, 1-(2-cyano-1-cyclopropylethyl)-3-({4-[(difluoromethyl)sulfonyl]phenyl}amino)-1H-pyrazole-4-carboxamide], the IC50 stood at 2 nM on JAK1 (setting [1]) and 13 nM on JAK2 (setting [2]).

Consider `Cc1nnc(-c2ccc(Nc3nn(C(CC#N)C4CC4)cc3C(N)=O)cc2)o1` (centres unmarked) [Example 4-25, 1-(2-cyano-1-cyclopropylethyl)-3-{[4-(5-methyl-1,3,4-oxadiazol-2-yl)phenyl]amino}-1H-pyrazole-4-carboxamide], for which the half-inhibitory concentration (IC50) at JAK1 (setting [1]) came to 42 nM; at JAK2 (setting [2]), 221 nM.

As to `CC(=O)Nc1ccc(Nc2nn(C(CC#N)C3CC3)cc2C(N)=O)cc1` (centres unmarked) [Example 4-21, 3-{[4-(acetylamino)phenyl]amino}-1-(2-cyano-1-cyclopropylethyl)-1H-pyrazole-4-carboxamide], the IC50 at JAK1 (setting [1]) worked out at 8 nM; at JAK2 (setting [2]) it was 45 nM.

Turning to `N#CCc1cccc(Nc2nn(C(CC#N)C3CC3)cc2C(N)=O)c1` (centres unmarked) [Example 4-9, 1-(2-cyano-1-cyclopropylethyl)-3-{[3-(cyanomethyl)phenyl]amino}-1H-pyrazole-4-carboxamide], the IC50 at JAK2 (setting [2]) is 27 nM.

As to `CC(C)(CC#N)n1cc(C(N)=O)c(Nc2ccccc2)n1` [Example 1-21, 1-(2-cyano-1,1-dimethylethyl)-3-(phenylamino)-1H-pyrazole-4-carboxamide], the concentration for half-maximal inhibition (IC50) on JAK1 (setting [1]) worked out at 12 nM; at JAK2 (setting [2]) it was 103 nM.

Regarding `Cc1noc(-c2ccc(Nc3nn(C(CC#N)C4CC4)cc3C(N)=O)cc2)n1` (centres unmarked) [Example 4-36, 1-(2-cyano-1-cyclopropylethyl)-3-{[4-(3-methyl-1,2,4-oxadiazol-5-yl)phenyl]amino}-1H-pyrazole-4-carboxamide], the IC50 stood at 5 nM on JAK1 (setting [1]) and 39 nM at JAK2 (setting [2]).

As for `N#CC[C@@H](C1CCN(C(=O)OC2CCCCC2)CC1)n1cc(C(N)=O)c(Nc2ccc(F)cc2)n1` (single isomer, unassigned) [Example 12-5, cyclohexyl 4-[(1S or 1R)-1-{4-carbamoyl-3-[(4-fluorophenyl)amino]-1H-pyrazol-1-yl}-2-cyanoethyl]piperidine-1-carboxylate], the IC50 at JAK1 (setting [1]) is 628 nM; at JAK2 (setting [2]), 1500 nM.

As to `N#CCc1ccc(Nc2nn(C(CC#N)C3CC3)cc2C(N)=O)cc1` (centres unmarked) [Example 4-8, 1-(2-cyano-1-cyclopropylethyl)-3-{[4-(cyanomethyl)phenyl]amino}-1H-pyrazole-4-carboxamide], the half-inhibitory concentration (IC50) came to 5 nM on JAK1 (setting [1]) and 24 nM at JAK2 (setting [2]).

Turning to `N#CCC(C1CCOC1)n1cc(C(N)=O)c(Nc2ccccc2)n1` (centres unmarked) [Example 1-14, 1-[2-cyano-1-(tetrahydrofuran-3-yl)ethyl]-3-(phenylamino)-1H-pyrazole-4-carboxamide], the figures for the IC50 on JAK1 (setting [1]) and on JAK2 (setting [2]) were 126 nM and 1400 nM, respectively.

Turning to `N#CCC(n1cc(C(N)=O)c(Nc2ccccc2)n1)C(F)(F)F` (centres unmarked) [Example 2, 1-(3-Cyano-1,1,1-trifluoropropan-2-yl)-3-(phenylamino)-1H-pyrazole-4-carboxamide], the half-inhibitory concentration (IC50) came to 124 nM on JAK1 (setting [1]) and 339 nM on JAK2 (setting [2]).

`CC(C)(C)OC(=O)N1Cc2cc(Nc3nn(C(CC#N)C4CC4)cc3C(N)=O)ccc2C1=O` (centres unmarked) [Example 4-2, tert-butyl 5-{[4-carbamoyl-1-(2-cyano-1-cyclopropylethyl)-1H-pyrazol-3-yl]amino}-1-oxo-1,3-dihydro-2H-isoindole-2-carboxylate]: the half-inhibitory concentration (IC50) on JAK1 (setting [1]) came to 2 nM; at JAK2 (setting [2]) it was 35 nM.

With `COc1cc(Nc2nn(C(CC#N)C3CC3)cc2C(N)=O)ccn1` (centres unmarked) [Example 4-12, 1-(2-cyano-1-cyclopropylethyl)-3-[(2-methoxypyridin-4-yl)amino]-1H-pyrazole-4-carboxamide], the IC50 was 7 nM at JAK1 (setting [1]) and 66 nM at JAK2 (setting [2]).

Take `N#CC[C@@H](C1CCN(C(=O)OC2CCC2)CC1)n1cc(C(N)=O)c(Nc2ccc(F)cc2)n1` [Example 11-5, cyclobutyl 4-[(1S)-1-{4-carbamoyl-3-[(4-fluorophenyl)amino]-1H-pyrazol-1-yl}-2-cyanoethyl]piperidine-1-carboxylate]: the IC50 at JAK1 (setting [1]) was 33 nM; at JAK2 (setting [2]), 1170 nM.

With `N#CC[C@H](C1CC1)n1cc(C(N)=O)c(Nc2ccc3c(c2)CNC3=O)n1` (single isomer, unassigned) [Example 19-1, 1-[(1R or 1S)-2-cyano-1-cyclopropylethyl]-3-[(1-oxo-2,3-dihydro-1H-isoindol-5-yl)amino]-1H-pyrazole-4-carboxamide], the half-maximal inhibitory concentration (IC50) at JAK2 (setting [3]) was determined as 15 nM.

Turning to `N#CCC(C1CC1)n1cc(C(N)=O)c(Nc2ccc3c(c2)CNC3=O)n1` (centres unmarked) [Example 7, 1-(2-Cyano-1-cyclopropylethyl)-3-[(1-oxo-2,3-dihydro-4H-isoindol-5-yl)amino]-1H-pyrazole-4-carboxamide], on JAK2 (setting [2]), the IC50 worked out at 38 nM.
